Source: ChEMBL document CHEMBL4330132, “5-Keto-3-cyano-2,4-diaminothiophenes as selective maternal embryonic leucine zipper kinase inhibitors” (Bioorg Med Chem Lett, 2019)

Tests used:
[1] = molecular target: Calcium/calmodulin-dependent protein kinase type 1G (Homo sapiens) (UniProt Q96NX5); experiment: Binding affinity to wild-type human partial length CAMK1G (M1 to A342 residues) expressed in bacterial expression system assessed as residual binding level at 1 uM by Kinomescan method relative to control
[2] = test system: eIF-2-alpha kinase GCN2 (Homo sapiens), Q9P2K8 [S808G]; experiment: Binding affinity to wild-type human partial length GCN2 kinase domain 2 (R585 to T1018 residues) S808G mutant expressed in bacterial expression system assessed as residual binding level at 1 uM by Kinomescan method relative to control
[3] = molecular target: Non-receptor tyrosine-protein kinase TYK2 (Homo sapiens) (UniProt P29597); experiment: Binding affinity to wild-type human partial length TYK2 JH2 pseudokinase domain (G556 to D888 residues) expressed in mammalian expression system assessed as residual binding level at 1 uM by Kinomescan method relative to control
Non-receptor tyrosine-protein kinase TYK2 (Homo sapiens), sequence (P29597 whole entry, the tested form may be a part): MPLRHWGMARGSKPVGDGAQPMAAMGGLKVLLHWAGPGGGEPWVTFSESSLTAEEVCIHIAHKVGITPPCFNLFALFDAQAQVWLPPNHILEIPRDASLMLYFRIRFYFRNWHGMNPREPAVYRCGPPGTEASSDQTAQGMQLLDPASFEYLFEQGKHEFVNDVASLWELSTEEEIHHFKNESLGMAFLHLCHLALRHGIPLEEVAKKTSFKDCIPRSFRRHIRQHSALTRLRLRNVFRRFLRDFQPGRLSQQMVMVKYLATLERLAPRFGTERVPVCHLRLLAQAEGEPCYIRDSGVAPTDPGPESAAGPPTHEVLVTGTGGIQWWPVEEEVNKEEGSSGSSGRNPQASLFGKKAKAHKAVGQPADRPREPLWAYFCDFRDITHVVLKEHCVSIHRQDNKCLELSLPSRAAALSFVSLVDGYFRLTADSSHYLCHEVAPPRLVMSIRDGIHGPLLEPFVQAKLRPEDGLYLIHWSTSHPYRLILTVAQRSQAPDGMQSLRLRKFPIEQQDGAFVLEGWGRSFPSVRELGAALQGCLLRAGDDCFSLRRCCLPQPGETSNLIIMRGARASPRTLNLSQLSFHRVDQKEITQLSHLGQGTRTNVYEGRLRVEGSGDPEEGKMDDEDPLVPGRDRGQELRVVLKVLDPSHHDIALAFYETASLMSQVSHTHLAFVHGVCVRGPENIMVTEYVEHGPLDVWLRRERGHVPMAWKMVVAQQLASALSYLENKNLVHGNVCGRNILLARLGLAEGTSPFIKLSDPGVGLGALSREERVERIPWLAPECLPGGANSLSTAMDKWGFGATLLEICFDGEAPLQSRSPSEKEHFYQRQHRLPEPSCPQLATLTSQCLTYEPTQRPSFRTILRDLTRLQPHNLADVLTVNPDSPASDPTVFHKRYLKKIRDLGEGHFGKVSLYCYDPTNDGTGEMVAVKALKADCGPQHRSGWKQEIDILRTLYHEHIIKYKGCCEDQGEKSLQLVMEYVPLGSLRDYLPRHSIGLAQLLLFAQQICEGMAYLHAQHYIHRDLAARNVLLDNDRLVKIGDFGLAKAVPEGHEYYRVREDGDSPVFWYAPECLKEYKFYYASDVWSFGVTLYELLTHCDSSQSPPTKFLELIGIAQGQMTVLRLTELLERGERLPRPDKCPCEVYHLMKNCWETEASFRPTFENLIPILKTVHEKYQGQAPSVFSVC

[4] = molecular target: Dual specificity tyrosine-phosphorylation-regulated kinase 1A (Homo sapiens) (UniProt Q13627); experiment: Binding affinity to wild-type human partial length DYRK1A (H129 to S509 residues) expressed in mammalian expression system assessed as residual binding level at 1 uM by Kinomescan method relative to control
[5] = molecular target: Muscle, skeletal receptor tyrosine-protein kinase (Homo sapiens) (UniProt O15146); experiment: Binding affinity to wild-type human partial length MUSK (M553 to V869 residues) expressed in bacterial expression system assessed as residual binding level at 1 uM by Kinomescan method relative to control
[6] = molecular target: Serine/threonine-protein kinase 3 (Homo sapiens) (UniProt Q13188); experiment: Binding affinity to wild-type human partial length MST2 (D17 to E318 residues) expressed in bacterial expression system assessed as residual binding level at 1 uM by Kinomescan method relative to control
[7] = molecular target: Activin receptor type-2A (Homo sapiens) (UniProt P27037); experiment: Binding affinity to wild-type human ACVR2A (V171 to T499 residues) expressed in bacterial expression system assessed as residual binding level at 1 uM by Kinomescan method relative to control
[8] = molecular target: STE20/SPS1-related proline-alanine-rich protein kinase (Homo sapiens) (UniProt Q9UEW8); experiment: Binding affinity to wild-type human partial length STK39 (P43 to I357 residues) expressed in mammalian expression system assessed as residual binding level at 1 uM by Kinomescan method relative to control
[9] = molecular target: Bone morphogenetic protein receptor type-2 (Homo sapiens) (UniProt Q13873); experiment: Binding affinity to wild-type human partial length BMPR2 (R179 to Q526 residues) expressed in mammalian expression system assessed as residual binding level at 1 uM by Kinomescan method relative to control
[10] = molecular target: Membrane-associated tyrosine- and threonine-specific cdc2-inhibitory kinase (Homo sapiens) (UniProt Q99640); experiment: Binding affinity to wild-type human partial length PKMYT1 (A88 to G366 residues) expressed in bacterial expression system assessed as residual binding level at 1 uM by Kinomescan method relative to control
[11] = molecular target: Cyclin-dependent kinase 11B (Homo sapiens) (UniProt P21127); experiment: Binding affinity to wild-type human partial length CDC2L1 (P353 to G692 residues) expressed in bacterial expression system assessed as residual binding level at 1 uM by Kinomescan method relative to control
[12] = molecular target: Phosphatidylinositol 4,5-bisphosphate 3-kinase catalytic subunit beta isoform (Homo sapiens) (UniProt P42338); experiment: Binding affinity to wild-type human partial length PIK3CB (P118 to S1070 residues) expressed in mammalian expression system assessed as residual binding level at 1 uM by Kinomescan method relative to control
[13] = molecular target: Serine/threonine-protein kinase 17A (Homo sapiens) (UniProt Q9UEE5); experiment: Binding affinity to wild-type human partial length DRAK1 (R32 to E363 residues) expressed in bacterial expression system assessed as residual binding level at 1 uM by Kinomescan method relative to control
Serine/threonine-protein kinase 17A (Homo sapiens), sequence (Q9UEE5 whole entry, the tested form may be a part): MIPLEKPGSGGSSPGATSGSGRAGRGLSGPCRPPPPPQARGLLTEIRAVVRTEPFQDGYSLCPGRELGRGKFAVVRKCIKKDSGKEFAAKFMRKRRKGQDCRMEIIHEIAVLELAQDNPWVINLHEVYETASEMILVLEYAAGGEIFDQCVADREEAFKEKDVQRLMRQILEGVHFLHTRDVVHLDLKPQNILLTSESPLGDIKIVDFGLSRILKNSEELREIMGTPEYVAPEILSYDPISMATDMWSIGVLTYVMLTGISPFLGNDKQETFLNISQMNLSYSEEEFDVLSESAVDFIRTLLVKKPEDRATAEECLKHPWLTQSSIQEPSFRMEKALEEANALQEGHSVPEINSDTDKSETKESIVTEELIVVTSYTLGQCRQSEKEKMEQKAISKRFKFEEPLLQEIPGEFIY

[14] = molecular target: cAMP-dependent protein kinase catalytic subunit beta (Homo sapiens) (UniProt P22694); experiment: Binding affinity to wild-type human full length PKAC-beta (M1 to F351 residues) expressed in bacterial expression system assessed as residual binding level at 1 uM by Kinomescan method relative to control
[15] = molecular target: Mitogen-activated protein kinase 3 (Homo sapiens) (UniProt P27361); experiment: Binding affinity to wild-type human full length ERK1 (M1 to P379 residues) expressed in bacterial expression system assessed as residual binding level at 1 uM by Kinomescan method relative to control
Mitogen-activated protein kinase 3 (Homo sapiens), sequence (P27361 whole entry, the tested form may be a part): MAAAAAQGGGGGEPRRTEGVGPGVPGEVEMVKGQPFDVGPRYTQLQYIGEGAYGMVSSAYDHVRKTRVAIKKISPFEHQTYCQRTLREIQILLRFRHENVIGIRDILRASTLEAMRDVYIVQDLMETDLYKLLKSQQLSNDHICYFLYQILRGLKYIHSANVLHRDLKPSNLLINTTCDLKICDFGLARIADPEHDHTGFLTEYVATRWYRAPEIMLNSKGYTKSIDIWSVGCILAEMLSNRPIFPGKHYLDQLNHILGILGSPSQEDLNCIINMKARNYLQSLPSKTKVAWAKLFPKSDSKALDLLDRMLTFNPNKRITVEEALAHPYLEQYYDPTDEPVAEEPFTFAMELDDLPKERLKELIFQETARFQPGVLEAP

[16] = molecular target: Tyrosine-protein kinase Fer (Homo sapiens) (UniProt P16591); experiment: Binding affinity to wild-type human partial length FER (S542 to T822 residues) expressed in bacterial expression system assessed as residual binding level at 1 uM by Kinomescan method relative to control
[17] = molecular target: Ribosomal protein S6 kinase alpha-3 (Homo sapiens) (UniProt P51812); experiment: Binding affinity to wild-type human partial length N-terminal RSK2 kinase domain 1 (M1 to D394 residues) expressed in mammalian expression system assessed as residual binding level at 1 uM by Kinomescan method relative to control
[18] = test system: Fibroblast growth factor receptor 3 (Homo sapiens), P22607 [G697C]; experiment: Binding affinity to human partial length FGFR3 G697C mutant (R442 to S771 residues) expressed in bacterial expression system assessed as residual binding level at 1 uM by Kinomescan method relative to control
[19] = molecular target: Calcium/calmodulin-dependent protein kinase type II subunit gamma (Homo sapiens) (UniProt Q13555); experiment: Binding affinity to wild-type human partial length CAMK2G (R9 to A303 residues) expressed in bacterial expression system assessed as residual binding level at 1 uM by Kinomescan method relative to control
Calcium/calmodulin-dependent protein kinase type II subunit gamma (Homo sapiens), sequence (Q13555 whole entry, the tested form may be a part): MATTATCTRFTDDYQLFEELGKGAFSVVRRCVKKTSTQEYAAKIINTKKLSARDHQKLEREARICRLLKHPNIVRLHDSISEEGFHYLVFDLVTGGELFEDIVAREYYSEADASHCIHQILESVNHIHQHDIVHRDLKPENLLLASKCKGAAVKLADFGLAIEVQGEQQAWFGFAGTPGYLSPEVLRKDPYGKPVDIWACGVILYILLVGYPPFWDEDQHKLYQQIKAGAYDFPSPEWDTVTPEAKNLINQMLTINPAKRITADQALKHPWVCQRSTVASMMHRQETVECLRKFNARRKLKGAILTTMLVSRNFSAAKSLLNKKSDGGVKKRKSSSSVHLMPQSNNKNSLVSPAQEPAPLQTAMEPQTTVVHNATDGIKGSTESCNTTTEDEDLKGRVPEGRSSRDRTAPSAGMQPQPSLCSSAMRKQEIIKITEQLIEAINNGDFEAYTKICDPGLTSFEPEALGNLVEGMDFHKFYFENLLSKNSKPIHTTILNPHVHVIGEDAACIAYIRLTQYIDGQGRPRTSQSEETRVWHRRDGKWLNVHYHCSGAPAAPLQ

[20] = molecular target: STE20-like serine/threonine-protein kinase (Homo sapiens) (UniProt Q9H2G2); experiment: Binding affinity to wild-type human partial length SLK (S14 to A307 residues) expressed in bacterial expression system assessed as residual binding level at 1 uM by Kinomescan method relative to control
STE20-like serine/threonine-protein kinase (Homo sapiens), sequence (Q9H2G2 whole entry, looked up, the tested form may be a part): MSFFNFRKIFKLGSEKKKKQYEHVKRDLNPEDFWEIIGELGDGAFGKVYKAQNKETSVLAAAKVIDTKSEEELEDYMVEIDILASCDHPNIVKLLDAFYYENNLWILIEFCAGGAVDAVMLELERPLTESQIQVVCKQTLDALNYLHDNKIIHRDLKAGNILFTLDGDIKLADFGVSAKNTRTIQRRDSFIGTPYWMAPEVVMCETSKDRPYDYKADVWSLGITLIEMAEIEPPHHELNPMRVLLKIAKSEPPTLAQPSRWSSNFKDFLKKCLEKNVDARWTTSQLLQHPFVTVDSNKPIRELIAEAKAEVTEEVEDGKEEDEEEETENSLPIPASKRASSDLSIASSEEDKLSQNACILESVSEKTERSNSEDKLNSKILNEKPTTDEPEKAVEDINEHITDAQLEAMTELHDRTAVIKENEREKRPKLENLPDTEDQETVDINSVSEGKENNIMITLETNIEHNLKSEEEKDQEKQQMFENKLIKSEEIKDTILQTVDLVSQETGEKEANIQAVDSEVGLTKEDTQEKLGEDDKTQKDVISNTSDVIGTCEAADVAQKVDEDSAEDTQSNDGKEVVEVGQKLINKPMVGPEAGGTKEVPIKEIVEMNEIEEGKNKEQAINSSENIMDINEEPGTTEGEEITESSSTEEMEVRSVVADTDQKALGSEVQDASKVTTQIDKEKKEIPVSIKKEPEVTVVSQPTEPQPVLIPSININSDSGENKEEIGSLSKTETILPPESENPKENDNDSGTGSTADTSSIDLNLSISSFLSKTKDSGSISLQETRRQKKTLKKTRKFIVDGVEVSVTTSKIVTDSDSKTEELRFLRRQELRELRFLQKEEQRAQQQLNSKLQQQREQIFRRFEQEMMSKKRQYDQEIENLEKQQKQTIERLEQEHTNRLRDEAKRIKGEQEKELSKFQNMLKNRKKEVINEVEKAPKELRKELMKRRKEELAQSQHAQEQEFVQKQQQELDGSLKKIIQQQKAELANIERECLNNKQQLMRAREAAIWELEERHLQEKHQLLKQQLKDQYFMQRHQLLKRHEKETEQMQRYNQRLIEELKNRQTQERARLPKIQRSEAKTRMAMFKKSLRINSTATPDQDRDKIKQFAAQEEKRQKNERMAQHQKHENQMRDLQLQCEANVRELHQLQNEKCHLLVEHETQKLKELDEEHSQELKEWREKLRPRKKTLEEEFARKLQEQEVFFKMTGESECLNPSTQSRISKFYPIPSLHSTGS

[21] = molecular target: Insulin receptor-related protein (Homo sapiens) (UniProt P14616); experiment: Binding affinity to wild-type human partial length INSRR (R950 to E1278 residues) expressed in bacterial expression system assessed as residual binding level at 1 uM by Kinomescan method relative to control
Insulin receptor-related protein (Homo sapiens), sequence (P14616 27-742 limits assumed): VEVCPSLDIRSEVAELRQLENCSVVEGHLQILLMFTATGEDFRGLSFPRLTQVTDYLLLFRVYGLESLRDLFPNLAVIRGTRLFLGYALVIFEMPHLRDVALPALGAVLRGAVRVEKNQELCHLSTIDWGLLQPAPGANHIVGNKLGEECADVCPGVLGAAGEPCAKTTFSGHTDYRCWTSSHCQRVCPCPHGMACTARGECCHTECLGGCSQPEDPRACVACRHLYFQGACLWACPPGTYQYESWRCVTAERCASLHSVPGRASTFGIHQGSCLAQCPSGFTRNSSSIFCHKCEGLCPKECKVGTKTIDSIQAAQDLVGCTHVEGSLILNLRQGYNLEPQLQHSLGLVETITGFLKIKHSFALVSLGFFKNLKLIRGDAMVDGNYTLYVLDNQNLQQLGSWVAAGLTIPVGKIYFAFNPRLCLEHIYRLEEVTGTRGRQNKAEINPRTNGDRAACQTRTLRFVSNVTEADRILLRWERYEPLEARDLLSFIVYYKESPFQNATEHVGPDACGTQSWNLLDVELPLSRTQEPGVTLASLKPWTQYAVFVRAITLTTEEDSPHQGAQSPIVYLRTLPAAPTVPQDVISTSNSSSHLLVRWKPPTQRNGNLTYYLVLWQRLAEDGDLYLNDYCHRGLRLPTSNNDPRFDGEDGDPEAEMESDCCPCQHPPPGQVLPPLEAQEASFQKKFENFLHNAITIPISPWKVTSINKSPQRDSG
Insulin receptor-related protein (Homo sapiens), sequence (P14616 747-1297 limits assumed): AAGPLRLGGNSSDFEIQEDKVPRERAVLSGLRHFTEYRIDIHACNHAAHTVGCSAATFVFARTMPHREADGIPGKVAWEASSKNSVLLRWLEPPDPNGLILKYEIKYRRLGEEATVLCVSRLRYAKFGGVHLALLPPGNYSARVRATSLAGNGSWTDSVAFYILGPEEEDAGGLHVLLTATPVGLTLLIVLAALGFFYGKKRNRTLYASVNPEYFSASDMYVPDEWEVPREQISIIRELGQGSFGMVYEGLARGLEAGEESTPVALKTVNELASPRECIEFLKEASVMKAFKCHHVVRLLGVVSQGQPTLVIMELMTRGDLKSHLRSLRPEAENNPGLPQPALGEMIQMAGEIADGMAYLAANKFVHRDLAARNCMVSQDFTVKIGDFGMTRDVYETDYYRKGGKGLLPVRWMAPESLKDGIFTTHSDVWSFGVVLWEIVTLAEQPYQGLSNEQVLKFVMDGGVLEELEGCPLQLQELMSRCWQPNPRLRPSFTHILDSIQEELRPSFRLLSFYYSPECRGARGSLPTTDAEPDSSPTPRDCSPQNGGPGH

[22] = molecular target: Platelet-derived growth factor receptor alpha (Homo sapiens) (UniProt P16234); experiment: Binding affinity to wild-type human partial length PDGFRA (V575 to D1002 residues) expressed in mammalian expression system assessed as residual binding level at 1 uM by Kinomescan method relative to control
[23] = molecular target: Phosphatidylinositol 4-phosphate 5-kinase type-1 alpha (Homo sapiens) (UniProt Q99755); experiment: Binding affinity to wild-type human full length PIP5K1A (M1 to H562 residues) expressed in bacterial expression system assessed as residual binding level at 1 uM by Kinomescan method relative to control
[24] = molecular target: Tyrosine-protein kinase Blk (Homo sapiens) (UniProt P51451); experiment: Binding affinity to wild-type human partial length BLK (G211 to L503 residues) expressed in bacterial expression system assessed as residual binding level at 1 uM by Kinomescan method relative to control

For `CC(C)Nc1sc(C(=O)c2ccc(Cl)s2)c(N)c1C#N`, the Activity [1] was 68%, the Activity [2] was 45% and the Activity [3] was 100%. The Activity [4] was 100%, the Activity [5] was 76% and the Activity [6] was 82%. The Activity [7] was 62%, the Activity [8] was 72% and the Activity [9] was 99%. For the same compound, the Activity [10] was 78%, the Activity [11] was 100% and the Activity [12] was 90%. The Activity [13] was 61%, the Activity [14] was 100% and the Activity [15] was 95%. For the same compound, the Activity [16] was 81%, the Activity [17] was 99% and the Activity [18] was 96%. For the same compound, the Activity [19] was 74%, the Activity [20] was 96% and the Activity [21] was 76%. The Activity [22] was 82%, the Activity [23] was 81% and the Activity [24] was 60%.
